Results as given in patent US11420958B2, “Aryl and heteroaryl substituted indole compounds” (BRISTOL-MYERS SQUIBB COMPANY, priority 2017, dated 2022).

Experiments:
Assay type in all cases: cell-based
human TLR7 = human TLR7 (Homo sapiens (Human), UniProt Q9NYK1); assay: TLR7 inhibition reporter assay (HEK-Blue, SEAP); conditions: HEK-Blue cells overexpressing human TLR7, gardiquimod 7.5 μM stimulation
Summary of the method: (§1)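 After 30 min room-temperature pre-incubation with compound (0.05 nM–50 μM), reporter HEK-Blue lines were activated by ODN2006 5 nM for TLR9, R848 15.9 μM for TLR8 or gardiquimod 7.5 μM for TLR7. SEAP detected after 22 h, 37 °C; inhibition scaled between agonist+DMSO wells and known-inhibitor control.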

human TLR8 = human TLR8 (Homo sapiens (Human), UniProt Q9NR97); assay: TLR8 inhibition reporter assay (HEK-Blue, SEAP); conditions: HEK-Blue cells overexpressing human TLR8, R848 15.9 μM stimulation
human TLR8, sequence (Q9NR97 27-1041): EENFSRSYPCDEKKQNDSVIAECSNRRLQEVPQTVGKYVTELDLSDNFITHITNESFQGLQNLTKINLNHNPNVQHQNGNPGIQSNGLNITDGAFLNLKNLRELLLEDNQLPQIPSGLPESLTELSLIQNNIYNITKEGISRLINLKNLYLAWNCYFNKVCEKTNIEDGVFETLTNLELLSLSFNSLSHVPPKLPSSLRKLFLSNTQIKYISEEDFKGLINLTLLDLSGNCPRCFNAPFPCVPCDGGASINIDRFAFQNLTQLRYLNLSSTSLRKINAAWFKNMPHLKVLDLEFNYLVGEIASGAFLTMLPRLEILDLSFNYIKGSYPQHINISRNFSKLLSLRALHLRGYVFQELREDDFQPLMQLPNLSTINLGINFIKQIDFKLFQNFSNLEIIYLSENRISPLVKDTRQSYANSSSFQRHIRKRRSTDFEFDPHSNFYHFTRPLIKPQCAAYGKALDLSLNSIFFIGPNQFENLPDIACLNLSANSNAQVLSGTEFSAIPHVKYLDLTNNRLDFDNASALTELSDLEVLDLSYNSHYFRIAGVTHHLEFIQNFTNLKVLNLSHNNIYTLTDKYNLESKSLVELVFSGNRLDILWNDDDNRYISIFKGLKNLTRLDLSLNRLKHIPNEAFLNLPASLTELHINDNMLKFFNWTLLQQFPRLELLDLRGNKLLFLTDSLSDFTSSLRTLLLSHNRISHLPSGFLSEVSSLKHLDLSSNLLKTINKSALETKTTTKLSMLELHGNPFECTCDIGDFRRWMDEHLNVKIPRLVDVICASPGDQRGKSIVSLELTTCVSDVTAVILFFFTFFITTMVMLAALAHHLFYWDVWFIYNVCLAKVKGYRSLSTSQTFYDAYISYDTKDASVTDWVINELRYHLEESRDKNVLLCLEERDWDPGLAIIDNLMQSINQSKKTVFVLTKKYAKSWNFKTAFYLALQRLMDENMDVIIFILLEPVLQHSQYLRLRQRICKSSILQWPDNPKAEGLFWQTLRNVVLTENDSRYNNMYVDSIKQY
Summary of the method: as §1

human TLR9 = human TLR9 (Homo sapiens (Human), UniProt Q9NR96); assay: TLR9 inhibition reporter assay (HEK-Blue, SEAP); conditions: HEK-Blue cells overexpressing human TLR9, ODN2006 5 nM stimulation
human TLR9, sequence (Q9NR96 26-1032): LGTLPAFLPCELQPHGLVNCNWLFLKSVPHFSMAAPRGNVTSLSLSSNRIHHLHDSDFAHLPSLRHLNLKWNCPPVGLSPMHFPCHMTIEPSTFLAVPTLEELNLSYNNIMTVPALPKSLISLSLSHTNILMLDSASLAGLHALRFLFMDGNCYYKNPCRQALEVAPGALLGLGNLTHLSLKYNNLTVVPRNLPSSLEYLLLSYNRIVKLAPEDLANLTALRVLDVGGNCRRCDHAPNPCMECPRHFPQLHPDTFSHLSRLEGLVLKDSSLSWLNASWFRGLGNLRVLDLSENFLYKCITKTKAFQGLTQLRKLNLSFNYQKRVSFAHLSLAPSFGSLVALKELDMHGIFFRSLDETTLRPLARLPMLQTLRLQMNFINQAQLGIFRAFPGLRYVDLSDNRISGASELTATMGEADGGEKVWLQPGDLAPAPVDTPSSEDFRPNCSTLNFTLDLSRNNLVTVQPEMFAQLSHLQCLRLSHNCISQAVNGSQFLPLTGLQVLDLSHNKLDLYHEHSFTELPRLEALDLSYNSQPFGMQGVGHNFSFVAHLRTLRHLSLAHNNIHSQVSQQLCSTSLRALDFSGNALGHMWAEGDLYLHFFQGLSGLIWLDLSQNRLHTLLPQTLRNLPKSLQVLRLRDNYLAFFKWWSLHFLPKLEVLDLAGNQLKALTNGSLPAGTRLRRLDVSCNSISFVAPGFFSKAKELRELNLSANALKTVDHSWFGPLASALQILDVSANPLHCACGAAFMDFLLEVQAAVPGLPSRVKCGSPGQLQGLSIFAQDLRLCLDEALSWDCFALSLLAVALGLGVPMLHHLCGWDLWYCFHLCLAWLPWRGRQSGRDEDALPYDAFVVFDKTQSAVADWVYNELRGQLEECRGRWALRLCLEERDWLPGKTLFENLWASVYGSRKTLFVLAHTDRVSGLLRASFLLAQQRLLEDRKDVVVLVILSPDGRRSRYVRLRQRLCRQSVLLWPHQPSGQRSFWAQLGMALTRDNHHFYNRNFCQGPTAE
Summary of the method: as §1

human TLR7, sequence (Q9NYK1 27-1049): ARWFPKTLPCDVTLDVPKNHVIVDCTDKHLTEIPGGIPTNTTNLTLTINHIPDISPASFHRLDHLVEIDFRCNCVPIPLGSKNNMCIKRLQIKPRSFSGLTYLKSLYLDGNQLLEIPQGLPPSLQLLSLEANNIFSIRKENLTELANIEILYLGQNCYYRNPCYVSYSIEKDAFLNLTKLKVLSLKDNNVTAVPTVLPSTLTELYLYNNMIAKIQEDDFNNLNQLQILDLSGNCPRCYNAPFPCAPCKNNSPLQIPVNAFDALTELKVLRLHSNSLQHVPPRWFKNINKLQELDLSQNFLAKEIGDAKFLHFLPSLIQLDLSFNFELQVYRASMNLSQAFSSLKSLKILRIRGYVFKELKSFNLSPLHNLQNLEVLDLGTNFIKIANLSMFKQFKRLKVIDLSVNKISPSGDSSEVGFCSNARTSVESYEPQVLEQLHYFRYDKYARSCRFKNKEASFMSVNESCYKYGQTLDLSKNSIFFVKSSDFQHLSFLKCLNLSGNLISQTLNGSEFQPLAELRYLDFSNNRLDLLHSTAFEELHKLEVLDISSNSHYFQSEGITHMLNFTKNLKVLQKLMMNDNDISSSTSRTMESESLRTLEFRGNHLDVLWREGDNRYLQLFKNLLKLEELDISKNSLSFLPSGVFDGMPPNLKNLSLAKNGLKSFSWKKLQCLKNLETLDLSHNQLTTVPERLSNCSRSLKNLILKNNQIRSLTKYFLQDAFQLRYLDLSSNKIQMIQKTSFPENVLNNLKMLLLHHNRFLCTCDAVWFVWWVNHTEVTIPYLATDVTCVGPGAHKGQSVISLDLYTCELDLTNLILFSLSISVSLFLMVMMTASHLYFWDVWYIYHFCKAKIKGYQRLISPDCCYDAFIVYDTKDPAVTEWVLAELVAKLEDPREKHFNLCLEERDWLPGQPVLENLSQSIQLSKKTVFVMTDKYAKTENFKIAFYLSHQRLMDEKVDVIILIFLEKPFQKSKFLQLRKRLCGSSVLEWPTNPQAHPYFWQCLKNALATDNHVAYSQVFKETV

Structure (SMILES) | IC50 (human TLR7) | IC50 (human TLR8) | IC50 (human TLR9)
CC(C)c1c(-c2ccnc3[nH]ncc23)[nH]c2ccc(-c3nnc(CN4CCC[C@H]4C(N)=O)o3)cc12 [Example 158, (S)-1-((5-(3-isopropyl-2-(1H-pyrazolo[3,4-b]pyridin-4-yl)-1H-indol-5-yl)-1,3,4-oxadiazol-2-yl)methyl)pyrrolidine-2-carboxamide] | 1380 nM | 174 nM | > 50000 nM
COc1ccc(-c2[nH]c3ccc(-c4cccc(C(=O)N5CCN(C6CCN(C)CC6)CC5)c4)cc3c2CC(F)(F)F)cc1OC [Example 37, (3-(2-(3,4-dimethoxyphenyl)-3-(2,2,2-trifluoroethyl)-1H-indol-5-yl)phenyl)(4-(1-methylpiperidin-4-yl)piperazin-1-yl)methanone] | 405 nM | 139 nM | 2320 nM
COc1ccc(-c2[nH]c3ccc(-c4cccc(C(=O)N5CC[C@@H](O)C5)c4)cc3c2CC(F)(F)F)cc1OC [Example 34, (R)-(3-(2-(3,4-dimethoxyphenyl)-3-(2,2,2-trifluoroethyl)-1H-indol-5-yl)phenyl)(3-hydroxypyrrolidin-1-yl)methanone] | 776 nM | 199 nM | 14700 nM
Cc1cc(-c2[nH]c3ccc(-c4nnc([C@@H]5CCCN(C(C)C)C5)o4)cc3c2C(C)C)cc(C)n1 [Example 245, (R)-2-(2-(2,6-dimethylpyridin-4-yl)-3-isopropyl-1H-indol-5-yl)-5-(1-isopropylpiperidin-3-yl)-1,3,4-oxadiazole] | 5.4 nM | 1.5 nM | 304 nM
COCCN(CCOC)Cc1nnc(-c2ccc3[nH]c(-c4ccc(OC)c(OC)c4)c(C(C)C)c3c2)o1 [Example 118, N-((5-(2-(3,4-dimethoxyphenyl)-3-isopropyl-1H-indol-5-yl)-1,3,4-oxadiazol-2-yl)methyl)-2-methoxy-N-(2-methoxyethyl)ethan-1-amine] | 227 nM | 362 nM | 18600 nM
Cc1cc(-c2[nH]c3ccc(-c4ccnc(C5CCN(C(C)C)CC5)c4)cc3c2C(C)C)cc(C)n1 [Example 345, 2-(2,6-dimethylpyridin-4-yl)-3-isopropyl-5-(2-(1-isopropylpiperidin-4-yl)pyridin-4-yl)-1H-indole] | 13 nM | 8.5 nM | 183 nM
Cc1cc(-c2[nH]c3ccc(-c4cn5c(n4)CNCC5)cc3c2C(C)C)cc(C)n1 [Example 354, 2-(2-(2,6-dimethylpyridin-4-yl)-3-isopropyl-1H-indol-5-yl)-5,6,7,8-tetrahydroimidazo[1,2-a]pyrazine] | 48 nM | 2.8 nM | 2100 nM
COc1ccc(-c2[nH]c3ccc(-c4nnc(CCn5ccnc5)o4)cc3c2C(C)C)cc1OC [Example 47, 2-(2-(1H-imidazol-1-yl)ethyl)-5-(2-(3,4-dimethoxyphenyl)-3-isopropyl-1H-indol-5-yl)-1,3,4-oxadiazole] | 194 nM | 82 nM | 19100 nM
CC(C)c1c(-c2ccnc3[nH]ncc23)[nH]c2ccc(-c3cccc4cnccc34)cc12 [Example 470, 5-(3-isopropyl-2-(1H-pyrazolo[3,4-b]pyridin-4-yl)-1H-indol-5-yl)isoquinoline] | 2590 nM | 56 nM | > 50000 nM
Cc1cc(-c2[nH]c3ccc(-c4nnc(C(=O)NC5CCN(C(C)C)CC5)s4)cc3c2C(C)C)ccn1 [Example 135, 5-(3-isopropyl-2-(2-methylpyridin-4-yl)-1H-indol-5-yl)-N-(1-isopropylpiperidin-4-yl)-1,3,4-thiadiazole-2-carboxamide] | 44 nM | 7.8 nM | 1380 nM
CC(C)c1c(-c2ccnc3[nH]ncc23)[nH]c2ccc(-c3nc4n(n3)CCN(C3CCN(C(C)C)CC3)C4)cc12 [Example 211, 2-(3-isopropyl-2-(1H-pyrazolo[3,4-b]pyridin-4-yl)-1H-indol-5-yl)-7-(1-isopropylpiperidin-4-yl)-5,6,7,8-tetrahydro-[1,2,4]triazolo[1,5-a]pyrazine] | 216 nM | 9.9 nM | 1830 nM
COc1ccc(-c2[nH]c3ccc(-c4nnc(C5CCN(CC(=O)N(C)C)CC5)o4)cc3c2C(C)C)cc1OC [Example 17, 2-(4-(5-(2-(3,4-dimethoxyphenyl)-3-isopropyl-1H-indol-5-yl)-1,3,4-oxadiazol-2-yl)piperidin-1-yl)-N,N-dimethylacetamide] | 108 nM | 17 nM | 6440 nM
CC(=O)Nc1ccc(-c2ccc3[nH]c(-c4ccnc(C)c4)c(C(C)C)c3c2)cn1 [Example 256, N-(5-(3-isopropyl-2-(2-methylpyridin-4-yl)-1H-indol-5-yl)pyridin-2-yl)acetamide] | 99 nM | 15 nM | > 50000 nM
CC(C)c1c(-c2ccnc3[nH]ncc23)[nH]c2ccc(-c3nnc(CNC45CC6CC(CC(C6)C4)C5)o3)cc12 [Example 151, N-((5-(3-isopropyl-2-(1H-pyrazolo[3,4-b]pyridin-4-yl)-1H-indol-5-yl)-1,3,4-oxadiazol-2-yl)methyl)adamantan-1-amine] | 5340 nM | 18 nM | > 50000 nM
Cc1cc(-c2[nH]c3ccc(-c4cccnc4)cc3c2C(C)C)cc(C)n1 [Example 304, 2-(2,6-dimethylpyridin-4-yl)-3-isopropyl-5-(pyridin-3-yl)-1H-indole] | 63 nM | 69 nM | 23000 nM
COc1ccc(-c2[nH]c3ccc(-c4nnc(C5CNC5)o4)cc3c2C(C)C)cc1OC [Example 53, 2-(azetidin-3-yl)-5-(2-(3,4-dimethoxyphenyl)-3-isopropyl-1H-indol-5-yl)-1,3,4-oxadiazole] | 381 nM | 78 nM | 3010 nM
CC(C)c1c(-c2ccnc3[nH]ncc23)[nH]c2ccc(-c3nnc(CNCC(C)(C)C)o3)cc12 [Example 149, N-((5-(3-isopropyl-2-(1H-pyrazolo[3,4-b]pyridin-4-yl)-1H-indol-5-yl)-1,3,4-oxadiazol-2-yl)methyl)-2,2-dimethylpropan-1-amine] | 7280 nM | 50 nM | > 50000 nM
CCc1c(-c2ccc(OC)c(OC)c2)[nH]c2ccc(-c3nnc(C(=O)N(C)C)o3)cc12 [Example 38, 5-(2-(3,4-dimethoxyphenyl)-3-ethyl-1H-indol-5-yl)-N,N-dimethyl-1,3,4-oxadiazole-2-carboxamide] | 1030 nM | 151 nM | > 50000 nM

Next, values leading:

IC50 (human TLR7) | IC50 (human TLR8) | IC50 (human TLR9) | Structure (SMILES)
108 nM | 166 nM | > 50000 nM | COCCN(C)Cc1nnc(-c2ccc3[nH]c(-c4ccc(OC)c(OC)c4)c(C(C)C)c3c2)o1 [Example 121, N-((5-(2-(3,4-dimethoxyphenyl)-3-isopropyl-1H-indol-5-yl)-1,3,4-oxadiazol-2-yl)methyl)-2-methoxy-N-methylethan-1-amine]
49 nM | 4.6 nM | 1220 nM | COc1ccc(-c2[nH]c3ccc(-c4nnc(C(=O)N(C)CCCN(C)C)o4)cc3c2C(C)C)cc1OC [Example 96, 5-(2-(3,4-dimethoxyphenyl)-3-isopropyl-1H-indol-5-yl)-N-(3-(dimethylamino)propyl)-N-methyl-1,3,4-oxadiazole-2-carboxamide]
22 nM | 18 nM | 665 nM | COc1ccc(-c2[nH]c3ccc(-c4ccnc(C(=O)NC5CCN(C(C)C)CC5)c4)cc3c2C(C)C)cc1OC [Example 11, 4-(2-(3,4-dimethoxyphenyl)-3-isopropyl-1H-indol-5-yl)-N-(1-isopropylpiperidin-4-yl)picolinamide]
428 nM | 317 nM | > 50000 nM | COc1ccc(-c2[nH]c3ccc(-c4ccc(-c5cccc(CN(C)C)c5)cc4)cc3c2C(C)C)cc1OC [Example 374, 1-(4′-(2-(3,4-dimethoxyphenyl)-3-isopropyl-1H-indol-5-yl)-[1,1′-biphenyl]-3-yl)-N,N-dimethylmethanamine]
517 nM | 22600 nM | 46600 nM | CCc1c(-c2ccc(OC)c(OC)c2)[nH]c2ccc(-c3ccc(N4CCN(C)CC4)cc3)cc12 [Example 381, 2-(3,4-dimethoxyphenyl)-3-ethyl-5-(4-(4-methylpiperazin-1-yl)phenyl)-1H-indole]
121 nM | 6.8 nM | 3290 nM | COc1ccc(-c2[nH]c3ccc(-c4cccc(C(=O)N5CCCN(C)CC5)c4)cc3c2C(C)C)cc1OC [Example 5, (3-(2-(3,4-dimethoxyphenyl)-3-isopropyl-1H-indol-5-yl)phenyl)(4-methyl-1,4-diazepan-1-yl)methanone]
200 nM | 21 nM | 2320 nM | COc1ccc(-c2[nH]c3ccc(-c4ccc(NC5CCCNC5)cc4)cc3c2C(C)C)cc1OC (stereo not drawn) [Example 402, N-(4-(2-(3,4-dimethoxyphenyl)-3-isopropyl-1H-indol-5-yl)phenyl)piperidin-3-amine]
60 nM | 11 nM | 666 nM | COc1ccc(-c2[nH]c3ccc(-c4ccc(N5CCN(C(C)C)CC5)nc4)cc3c2C(C)C)cc1OC [Example 393, 2-(3,4-dimethoxyphenyl)-3-isopropyl-5-(6-(4-isopropylpiperazin-1-yl)pyridin-3-yl)-1H-indole]
49 nM | 6.8 nM | 1220 nM | COc1ccc(-c2[nH]c3ccc(-c4ccc(N5CCNCC5)nc4)cc3c2C(C)C)cc1OC [Example 417, 2-(3,4-dimethoxyphenyl)-3-isopropyl-5-(6-(piperazin-1-yl)pyridin-3-yl)-1H-indole]
